Measured values reported in ChEMBL document CHEMBL4825678, “Oshimalides A and B, Sesterterpenes of the Manoalide Class from a Luffariella sp. Deep-Sea Marine Sponge: Application of Asymmetric Dihydroxylation in Structure Elucidation” (2021).
Converted amounts (≈) assume the structure as drawn.

Tested on: Staphylococcus aureus
Assay: Antimicrobial activity against staphylococcus aureus 209P JC-1 incubated for 20 hrs by agar dilution method
Assay type: functional

MIC: 51 µg/mL (≈ 128 µM)
Compound: CC1=CC(=O)C[C@@H](C)[C@@]1(C)CC/C(C)=C/CCC1=CC[C@H](C2=CC(=O)OC2)OC1
